Results reported in patent US12268692B2, “Combinatorial targeted therapy methods” (Postsurgical Therapeutics, Inc., priority 2020, dated 2025).

How the values were obtained:
[1] = cited from earlier work
[2] = In vitro release study of sorafenib and everolimus PLGA microspheres (sample-and-separate method, HPLC); details: during in vitro release study
Protocol: The in vitro release study was carried out by sample-and-separate method. Briefly, 5 mg of microsphere sample (n=3) was taken into 100 mL flask and dispersed in 50 mL of release medium (0.5% Tween 20 and 0.1% sodium azide in phosphate-buffered saline (PBS at pH 7.4)). The flasks were placed in orbital agitating incubator at 37° C. and shacked at 100 rpm. At certain time points, 40 mL medium was taken and centrifuged at 3000 rpm for 2 min. From the supernatant, 30 mL was pipetted and replaced by same amount of the fresh media. In the collected supernatant, the content of the released SOF or EVE was analyzed by high performance liquid chromatography (HPLC).

[3] = tested on: AGS cells; assay: In vitro cytotoxicity study, XTT assay; assay type: cell-based, human
Protocol: AGS cells (2×10^4 cells/well) were seeded in a 12-well plates (Corning, Millipore Sigma) with 1 mL of RPMI-1640 medium containing 10% FBS (Fetal Bovine Serum) and incubated for 1 day at 37° C. in a humidified incubator containing 5% CO2. AGS cells were allowed to proliferate for tests of in vitro antitumor activity. In triplicate wells, Group 1 (PBS), Group 2 (ISG formulation without everolimus or trametinib), Group 3 (ISG formulation with 90 μg of everolimus), Group 4 (ISG formulation with 90 μg of trametinib) and Group 5 (ISG formulation with 90 μg of everolimus and 90 μg of tramethinib), Group 6 (cell culture media without AGS cells) and Group 7 (10% ethanol in cell culture media) were added directly into chambers of the 12 well plate to examine the in vitro antitumor activity of these solutions against AGS cancer cells. […]
(§1) Briefly, 100 μL of PBS solution containing the XTT substrate (50 mg/mL) was added to each 12-well plate and the plates were incubated at 37° C. for 4 h. […] The solution of each well was transferred to a 96-well plate (triplicate for wells 1 and 2 and duplicate for well 3) and read using a microplate reader (Bio-teck XLS800; Bio-Tek Instruments City of Industry, CA). The optical density of the formazan product of each well was measured at a wavelength of 450 nm and a reference wavelength of 630 nm. […]

[4] = tested on: SW403 colorectal cell line; assay: In vitro cytotoxicity study, XTT assay; assay type: cell-based, human; details: SW403 cells
Protocol: (§2) AGS cells (2×10^4 cells/well) were seeded in a 12-well plates (Corning, Millipore Sigma) with 1 mL of RPMI-1640 medium containing 10% FBS (Fetal Bovine Serum) and incubated for 1 day at 37° C. in a humidified incubator containing 5% CO2. AGS cells were allowed to proliferate for tests of in vitro antitumor activity. In triplicate wells, Group 1 (PBS), Group 2 (ISG formulation without everolimus or trametinib), Group 3 (ISG formulation with 90 μg of everolimus), Group 4 (ISG formulation with 90 μg of trametinib) and Group 5 (ISG formulation with 90 μg of everolimus and 90 μg of tramethinib), Group 6 (cell culture media without AGS cells) and Group 7 (10% ethanol in cell culture media) were added directly into chambers of the 12 well plate to examine the in vitro antitumor activity of these solutions against AGS cancer cells.
(§3) Each 12 well plate chamber was seeded with AGS cells (2×10^4 cells/well). The 12 well plates were maintained at 37° C. in a humidified incubator containing 5% CO2 for 48 hours prior to dosing. To create a drug depot at dosing time, 2 μL of each of the ISG everolimus formulation (90 μg everolimus/well), the ISG trametinib formulation (90 μg trametinib/well) and ISG everolimus-trametinib (90 μg everolimus+90 μg trametinib) formulations were added directly into the media of each corresponding plate well and maintained at 37° C. in a humidified incubator for the duration of the experiment. […]
as §1

[5] = tested on: NCI H441 lung cell line; assay: In vitro cytotoxicity study, XTT assay; assay type: cell-based, human; details: NCI H441 cells
Protocol: as §2, §3, §1

[6] = tested on: MIA PaCa-2 pancreatic cell line; assay: In vitro cytotoxicity study, XTT assay; assay type: cell-based, human; details: MIA PaCa-2 cells
Protocol: as §2, §3, §1

| Structure (SMILES) | stability of EVE as free form in aqueous solution [1] | stability of EVE inside the microsphere [2] | in vitro cytotoxicity (XTT), ethanol treatment alone ([3]; 10% ethanol in cell culture media, 72 h time point) | in vitro cytotoxicity (XTT) ([3]; 24 and 72 h of exposure) | in vitro cytotoxicity (XTT) [4] | in vitro cytotoxicity (XTT) [5] | in vitro cytotoxicity (XTT) [6] |
| --- | --- | --- | --- | --- | --- | --- | --- |
| CO[C@H]1C[C@@H]2CC[C@@H](C)[C@@](O)(O2)C(=O)C(=O)N2CCCC[C@H]2C(=O)O[C@H]([C@H](C)C[C@@H]2CC[C@@H](OCCO)[C@H](OC)C2)CC(=O)[C@H](C)/C=C(\C)[C@@H](O)[C@@H](OC)C(=O)[C@H](C)C[C@H](C)/C=C/C=C/C=C/1C [EVE, everolimus] | degrade quickly in aqueous solution as free form | stable inside the microsphere |  |  |  |  |  |
| CCO [ethanol] |  |  | complete ablation and cytotoxicity of the cancer cells | ablation with a complete cytotoxic effect on the cancer cells | ablation with a complete cytotoxic effect on the cancer cells | ablation with a complete cytotoxic effect on the cancer cells | ablation with a complete cytotoxic effect on the cancer cells |
